Consider six compounds from patent US9212205B2, “Nucleic acid binding compounds and methods of use” (University of Rochester, priority 2007, dated 2015).

Where only a bound is given, the exact number is not on record here.

The target of data set [1] is HIV-1 frameshift-inducing RNA stem-loop (SEQ ID NO:1). The experiment in a line: Fluorescence titration of Cy-3 labeled HIV-1 RNA stem-loop. Format: binding. The conditions noted are these: freshly prepared compound; read-out: KD, fluorescence titration with the HIV1 frameshift inducing stemloop. The method, then:
The binding of dicarba analogs to the HIV-1 frameshift-inducing RNA was measured using fluorescence spectroscopy. Fluorescence titrations were performed on a Varian Cary eclipse fluorescence spectrophotometer using 1 cm path-length quartz fluorescence cell. The solution of Cy-3 labeled HIV-1 RNA stem-loop in PBS buffer (400 μL, 400 nM) was taken in the cell and excited with a wavelength of 550 nm. A PMT voltage of 715 V was used for collecting the fluorescence data and the emission spectrum was collected from 555 to 600 nm wavelength range. The ligand solution in PBS buffer was added to the target RNA in the cell in either 2 or 4 μL increments and was allowed to equilibrate for 10 minutes before recording the emission spectrum. Statistical analysis of the data was carried out using Origin 7 (OriginLab corporation). Binding constants were determined by fitting the data to one-site binding model equation.
A 5′-Cy3 labeled upper stem-loop of HIV-1 RNA (SEQ ID NO:1) was titrated with increasing amount of the dicarba analogs in a phosphate buffer (PBS, pH 7.4) using the same protocol to that described in Example 3 above. The fluorescence intensity of the labeled RNA stem-loop decreased as a function of the ligand concentration. […] Normally, one would expect a greater difference between the affinities of the two isomers.
To further evaluate the binding selectivity of dicarba analogs to the frameshift-inducing stem-loop, fluorescence titrations were repeated in the presence of twenty-fold excess concentration of yeast tRNA. […] In an interesting result it was discovered that the monomeric compound (5) also bound to the HIV-1 RNA stem-loop with similar affinity as that of the other analogs, but the binding affinity was diminished in the presence of tRNA. […] Quinoline is a known intercalator of nucleotide bases and has the capability to interact with RNA non-specifically. But it is the peptidic part of the molecule in ligands 5-5 E and 5-5 Z that imparts specificity to the interaction between the ligand and the RNA stem-loop. The peptidic part on monomer 5 is insufficient to impart specificity to the interaction as evident from the results.

Data set [2] is classed as physicochemical. The method, then:
The oxidation of 1-1 (FIG. 13, Scheme 2) to the disulfoxide was achieved by reacting 1-1 with H2O2 (1.1 eq.) and MoClO2 (0.05 eq) in 1:1 acetonitrile:water for 15 minutes, followed by purification by RP-HPLC (Jeyakumar et al., “Selective Oxidation of Sulfides to Sulfoxides and Sulfones at Room Temperature Using H2O2 and Mo(VI) Salt as Catalyst,” Tettrahedron Letters 47:4573-76 (2006), which is hereby incorporated by reference in its entirety).

Data set [3] has as its target (CUG)109 RNA (SEQ ID NO:8)-MBNL1 protein interaction. The experiment in a line: Enzyme Fragmentation Complementation (EFC) assay of (CUG)109-MBNL1 binding inhibition. Format: biochemical. The method, then: Small molecule-mediated inhibition of (CUG)109-MBNL1 binding was determined using an Enzyme Fragmentation Complementation (EFC) assay (Eglen et al., “β-Galactosidase Enzyme Fragment Complementation as A Novel Technology for High Throughput Screening,” Comb. Chem. High Throughput Screening 6:381-387 (2003), which is hereby incorporated by reference in its entirety). Briefly, this was performed by first immobilizing (CUG)109 RNA (SEQ ID NO:8) to a 96 well plate. Next, the immobilized RNA was incubated with recombinant MBNL1 fused to the PL enzyme donor peptide (PL-MBNL1, where “PL” is the commercial “ProLabel” enzyme donor peptide) (DiscoveRx PathHunter ProLabel Detection kit) in the presence of varying concentrations of small molecule inhibitor. The Enzyme Acceptor (EA-β-galactosidase) complement was then added, and the activity of the resulting plate—(CUG)109 bound (PL-MBNL1)-(EA-β-galactosidase) activity was monitored via a chemiluminsecent substrate. Only the EA-β-Gal bound to the PL-MBNL1 is capable of performing the luminescent reaction and, as such, any luminescence correlates to the amount of MBNL1 bound to the (CUG)109 immobilized on the plate. Wells lacking (CUG)109 RNA served as a background measure of non-specific luminescence and were subtracted from each experiment to yield a 0% bound value. Wells containing no small molecule inhibitor added served as 100% bound. […]

For data set [4], the target named is (CUG) repeat RNA SEQ ID NO:7. In words: Filter binding assay (FBA), SEQ ID NO:7. The conditions noted are these: FBA, read-out: KD. The method, then: (§1) A filter binding assay system was utilized to provide a rapid initial assessment of binding affinity. All binding studies were performed in PBS pH 7.2+1 mM MgCl2 at 22° C. Various concentrations of small molecules were incubated with 10 nM FAM-labeled RNA in a total volume of 50 μl for 20 minutes. A slot blot apparatus was then assembled with a wet nitrocellulose filter, on top of a wet nylon filter, on top of filter paper. 40 μl of each binding mixture was then loaded into an individual well of the apparatus and allowed to penetrate the filters for 10 minutes. The peptidic disulfides selected from the DCL efficiently bind to the nitrocellulose filter. In contrast, the FAM-labeled RNA strands penetrate the nitrocellulose filter and are bound by the nylon filter. As such, RNA bound by the peptidic library members remains bound on the nitrocellulose filter, and unbound RNA passes to the nylon filter.
(§2) Densitometric analysis of the ratio of labeled RNA on the nitrocellulose to nylon filters allows quantification of binding (FIG. 15A). All binding isotherms were fit to the logistic binding model (Equation 1 above). The repetitive nature of the target sequences may in some cases result in binding stoichiometries that are more complex than a simple 1:1 interaction.
(§3) To test specificity and to confirm the determined binding affinities, filter binding assays and fluorescence titrations were performed with SEQ ID NOS: 7-11 (Table 5), and the HIV-1 frameshift stimulating RNA hairpin used in preceding Examples (SEQ ID NO:1, Table 5). Fluorescence titrations were performed using a Varian Cary Eclipse spectrophotometer. 2 μl of 50 or 500 μM small molecule were titrated into 400 μl of FAM labeled RNA sequences an allowed to equilibrate for at least 10 minutes, or until no change in fluorescence spectra was observed. Changes in fluorescence emission at 518 nm (excitation at 490 nm) were measured. Raw data were corrected for dilution dependant changes, and Em518 was plotted against small molecule concentration and fit to the one site binding equation y=(bmaz*x)/(KD+x).) Competition experiments utilizing target RNA (SEQ ID NO:7) and a 20-fold molar excess of total yeast tRNA were performed to measure non-specific RNA binding (Luedtke et al., “RNA-Ligand Interactions: Affinity and Specificity of Aminoglycoside Dimers and Acridine Conjugates to the HIV-1 Rev Response Element,” Biochemistry 42:11391-11403 (2003), which is hereby incorporated by reference in its entirety). Compound 1-1, the HIV-1 RNA ligand, served as a negative control.

In data set [5] the target is variant (CUG) stem RNA (SEQ ID NO:9). The experiment in a line: Filter binding assay (FBA), SEQ ID NO:9. The method, then:
as §1, §2, §3

In data set [6] the target is HIV-1 frameshift stimulating RNA hairpin (SEQ ID NO:1). In words: Filter binding assay (FBA), SEQ ID NO:1. The method, then:
as §1, §2, §3

The target in data set [7] is (CUG) repeat RNA SEQ ID NO:7. In words: Fluorescence titration (FT), SEQ ID NO:7. It counts as binding. The method, then: as §3
The target in data set [8] is (CUG) loop RNA (SEQ ID NO:11). In words: Fluorescence titration (FT), SEQ ID NO:11. It counts as binding. More on the design: key: NC = Not Calculable.; NS = Not Saturatable. The method, then:
as §3

Data set [9] deals with (CUG) loop RNA (SEQ ID NO:11). In words: Filter binding assay (FBA), SEQ ID NO:11. The method, then:
as §1, §2, §3

Data set [10] has as its target variant (CUG) stem RNA (SEQ ID NO:9). In words: Fluorescence titration (FT), SEQ ID NO:9. Format: binding. The method, then:
as §3

Data set [11] has as its target (CUG)/(CAG) complimentary RNA (SEQ ID NO:10). The experiment in a line: Fluorescence titration (FT), SEQ ID NO:10. Format: binding. Also on record: key to KD: NC = Not Calculable.; NS = Not Saturatable. The method, then: as §3
In data set [12] the target is (CUG)109 RNA (SEQ ID NO:8). The experiment in a line: Filter binding assay (FBA), SEQ ID NO:8. The method, then: as §1, §2
Data set [13] addresses (CUG)/(CAG) complimentary RNA (SEQ ID NO:10). In words: Filter binding assay (FBA), SEQ ID NO:10. The method, then:
as §1, §2, §3

Regarding `CCc1nc2ccccc2cc1C(=O)N[C@@H](C[S+]([O-])[S+]([O-])C[C@H](NC(=O)c1cc2ccccc2nc1CC)C(=O)N1CCC[C@H]1C(=O)N[C@@H](Cc1ccccc1)C(=O)NCCCN)C(=O)N1CCC[C@H]1C(=O)N[C@@H](Cc1ccccc1)C(=O)NCCCN` (stereo partly drawn) [1-1 disulfoxide], the Kd in data set [1] is 0.41 µM. In addition, the degradation after synthesis entry in data set [2] was “degraded within a few hours of synthesis”.
`NCCCCC(NC(=O)C(CSSCC(NC(=O)C(CC(N)=O)NC(=O)c1ccc2c(c1)OCO2)C(=O)NC(CCCCN)C(=O)NCCCN)NC(=O)C(CC(N)=O)NC(=O)c1ccc2c(c1)OCO2)C(=O)NCCCN` (stereo not drawn) [dimer 6-6]: in data set [3], the “Ki, inhibition of the (CUG)n MBNL1 interaction” value is on record as “do not show any inhibitory effect”.
In the case of `CCc1nc2ccccc2cc1C(=O)N[C@@H](CC(N)=O)C(=O)N[C@@H](CSSC[C@H](NC(=O)[C@@H]1CCCN1C(=O)c1cc2ccccc2nc1CC)C(=O)N[C@@H](CCCCN)C(=O)NCCCN)C(=O)N[C@@H](CCCCN)C(=O)NCCCN` [dimer 7-9], the Kd stood at 10 ± 0.7 µM in data set [4] (SEQ ID NO: 7 + 20 x tRNA); 4.5 ± 0.6 µM in [4] (SEQ ID NO: 7); 6.4 ± 1 µM in [5]; 22 ± 2 µM in data set [6]; 2.1 µM in [7] (SEQ ID NO: 7); 2.9 µM in [7] (SEQ ID NO: 7 + 20 x tRNA). The Kd in data set [9] came to 4.6 ± 0.1 µM; in data set [10] it was 1.6 µM; in data set [12], 2.1 µM; in data set [13], 19.5 ± 1 µM. In addition, the KD entry in data set [8] and in data set [11] was “NC” each time.
Consider `NCCCC[C@H](NC(=O)[C@H](CSSC[C@H](NC(=O)[C@@H]1CCCN1C(=O)c1ccc2c(c1)OCO2)C(=O)N[C@@H](CCCCN)C(=O)NCCCN)NC(=O)[C@@H]1CCCN1C(=O)c1ccc2c(c1)OCO2)C(=O)NCCCN` [dimer 8-8], for which the Kd in data set [4] (SEQ ID NO: 7 + 20 x tRNA) turned out to be 14 ± 4 µM; in data set [4] (SEQ ID NO: 7) it was 5.4 ± 0.6 µM; in [5], 9.3 ± 0.4 µM; in data set [6] it was 41 ± 9 µM; in [7] (SEQ ID NO: 7), 1.4 µM; in data set [7] (SEQ ID NO: 7 + 20 x tRNA), 2.4 µM. Further, the Kd in data set [9] amounted to 7.5 ± 0.9 µM; in data set [10] it was 2.1 µM; in data set [12], 2.5 µM; in data set [13] it was 21 ± 1.4 µM. Further, the KD entry in [8] and in data set [11] was “NC” each time.
`CCc1nc2ccccc2cc1C(=O)N1CCC[C@H]1C(=O)N[C@@H](CSSC[C@H](NC(=O)[C@@H]1CCCN1C(=O)c1ccc2c(c1)OCO2)C(=O)N[C@@H](CCCCN)C(=O)NCCCN)C(=O)N[C@@H](CCCCN)C(=O)NCCCN` [dimer 8-9]: the Kd amounted to 9.6 ± 0.7 µM in data set [4] (SEQ ID NO: 7 + 20 x tRNA); 4.1 ± 0.2 µM in data set [4] (SEQ ID NO: 7); 4.7 ± 0.1 µM in data set [5]; 16 ± 4 µM in [6]; 2.1 µM in data set [7] (SEQ ID NO: 7); 4.2 µM in data set [7] (SEQ ID NO: 7 + 20 x tRNA). Besides, the Kd in [9] worked out at 6 ± 0.1 µM; in [10], 2.6 µM; in [12], 1.9 µM; in [13], 21 ± 1.8 µM. In addition, the KD entry in data set [8] and in data set [11] was “NC” throughout.
Consider `CCc1nc2ccccc2cc1C(=O)N1CCC[C@H]1C(=O)N[C@@H](CSSC[C@H](NC(=O)[C@@H]1CCCN1C(=O)c1cc2ccccc2nc1CC)C(=O)N[C@@H](CCCCN)C(=O)NCCCN)C(=O)N[C@@H](CCCCN)C(=O)NCCCN` [dimer 9-9], for which the Kd in [4] (SEQ ID NO: 7 + 20 x tRNA) came out at 18 ± 2.1 µM; in [4] (SEQ ID NO: 7), 6.7 ± 0.2 µM; in data set [5], 7.1 ± 1.1 µM; in [6] it was 24 ± 5 µM; in data set [7] (SEQ ID NO: 7), 2.2 µM; in [7] (SEQ ID NO: 7 + 20 x tRNA), 3.4 µM. Further, the Kd is 8.5 ± 0.1 µM in [9]; 1.7 µM in data set [10]; 17 µM in data set [11]; 2.1 µM in data set [12]; more than 40 µM in data set [13]. The KD result in data set [8] is listed as “NS”.
